Molecules are shown by their SMILES.

The assay concerns the target T1, HuR (Homo sapiens, UniProt Q15717).
T1 construct: gene ELAVL1; full-length HuR (326 residues)
Nature of the assay: SPR steady state (Biacore T200, immobilized HuR); supported by concentration-dependent positive DSF shift. Format: binding.

T1 sequence (Q15717 whole entry): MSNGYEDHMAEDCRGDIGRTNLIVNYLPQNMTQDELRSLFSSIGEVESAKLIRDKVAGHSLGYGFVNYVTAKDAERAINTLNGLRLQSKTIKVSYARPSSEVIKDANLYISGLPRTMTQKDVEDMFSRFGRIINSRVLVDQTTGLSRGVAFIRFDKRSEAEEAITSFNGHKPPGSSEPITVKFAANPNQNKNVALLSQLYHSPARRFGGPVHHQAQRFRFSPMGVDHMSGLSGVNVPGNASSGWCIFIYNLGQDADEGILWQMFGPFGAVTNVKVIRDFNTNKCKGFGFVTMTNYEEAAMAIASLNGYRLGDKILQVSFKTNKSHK

With `Cc1ccc(C(=O)Nc2ccc(S(=O)(=O)O)c3cc(S(=O)(=O)O)cc(S(=O)(=O)O)c23)cc1NC(=O)c1cccc(NC(=O)Nc2cccc(C(=O)Nc3cc(C(=O)Nc4ccc(S(=O)(=O)O)c5cc(S(=O)(=O)O)cc(S(=O)(=O)O)c45)ccc3C)c2)c1` [suramin], the equilibrium dissociation constant (Kd) came out at 240 µM.

For orientation: Kd means the concentration at which binding is half-saturated.

Values taken from article PMC6308099, “Suramin, screened from an approved drug library, inhibits HuR functions and attenuates malignant phenotype of oral cancer cells” (Cancer Medicine, 2018).
